Source: patent publication EP0509180A1, “Use of GABA-T inhibitors for the treatment of schizophrenia and phencyclidine intoxication” (MERRELL DOW PHARMACEUTICALS INC., priority 1991, dated 1992)

What was measured:
[1] = system: male CDl albino mice; test: Spontaneous locomotor activity of mice (actimeter, Event-Counter); assay type: in vivo
Experimental: (§1) In determining efficacy for the above-stated uses of gamma-aminobutyric acid transaminase inhibitors standard laboratory models are employed wherein effects on phencyclidine-induced locomotor activity are determined. One such test employed is: male CDl albino mice (weighing 30-40 grams) (Charles River, St. Aubin-les-Elbeuf, France) kept under standardized conditions (22°C, 60% relative humidity; 12 hours light - 12 hours dark cycle; water and standard diet ad libitum). Locomotor activity is determined using the Event-Counter of Columbus Instr. Corp. (Columbus, Ohio). The animals (six per cage) are brought into a room which is equipped with an actimeter, and allowed to adapt to the new environment for several hours. Phencyclidine is given 5 hours after administration of the GABA-T inhibitors. The dose of phencyclidine used is 5 µg/g in 10 µl of physiological saline, i.p. Immediately after phencyclidine administration (or of the same volume of physiological saline in the case of controls), the animals are placed individually into standard plastic cages (23 cm × 17 cm), and the actimeter is set into action. Total time of observation: 35 minutes. The scores of 5 minute intervals are integrated and stored by the computer.
(§2) In order to test "direct" effects of the drugs, locomotor activity was determined, starting 10 minutes after intraperitoneal administration of 150 mg/kg (4S)-allenylGABA, and 400 mg/kg vigabatrin, respectively.
(§3) The locomotor behavior of mice with elevated brain GABA concentrations was tested as follows: vigabatrin and (4S)-allenylGABA were administered intraperitoneally in a dose-range from 100-800 mg/kg and 50-300 mg/kg, respectively. Within this dose range whole brain GABA concentrations, as observed 5 hours post injection were between 2.5 and 10 µmol/g.

[2] = system: male CDl albino mice; test: Phencyclidine (PCP)-induced locomotor activity of mice (actimeter, Event-Counter); assay type: in vivo; conditions: for direct effect on phencyclidine-induced locomotor behavior (in words): 10 minutes (15 minutes) after i.p. 150 mg/kg (4S)-allenylGABA or 400 mg/kg vigabatrin (Table I)
Experimental: as §1, §2, §3

[3] = system: whole brain GABA; test: Whole brain GABA concentrations after GABA-T inhibitor administration; assay type: in vivo, mice; conditions: 15 minutes after administration of optimum doses

In the case of `C=C=C[C@@H](N)CCC(=O)O` [(4S)-allenylGABA, (S)-4-amino-5,6-heptadienoic acid], the “Spontaneous locomotor activity, Mean scores ± S.D.” value ([1]; 50 mg/kg i.p., 5 h pretreatment) is reported as 306.244 ( 6), the “Spontaneous locomotor activity, Mean scores ± S.D.” value ([1]; 100 mg/kg i.p., 5 h pretreatment) is reported as 406.221 ( 6) and the “Spontaneous locomotor activity, Mean scores ± S.D.” value ([1]; 150 mg/kg i.p., 5 h pretreatment) is reported as 315.304 ( 6). The “Spontaneous locomotor activity, Mean scores ± S.D.” value ([1]; 150 mg/kg i.p., given 10 minutes before physiol. saline) was 688 ± 308 ( 6), the “Spontaneous locomotor activity, Mean scores ± S.D.” value ([1]; 300 mg/kg i.p., 5 h pretreatment) was 445.420 ( 6) and the “sedation / motor activity at very high dose” value ([1]; 600 mg/kg (not shown)) was “sedated”. For the same compound, the “effect on spontaneous locomotor activity (in words)” value ([1]; dose range from 50 to 300 mg/kg, 5 h pretreatment (Table III)) was “did not affect”, the “PCP-induced locomotor activity, Mean scores ± S.D.” value (“PCP-induced locomotor activity” below) ([2]; 150 mg/kg i.p., given 10 minutes before phencyclidine (5 mg/kg)) was 2680 ± 1040 (11) and the “direct effect on phencyclidine-induced locomotor behavior (in words)” value [2] was “absence of an effect”. For the same compound, the minimal effective dose ([2]; Mus musculus, 5 h, read-out: dose giving a statistically significant difference to mice receiving only phencyclidine) was no less than 100 mg/kg, the “phencyclidine-induced hypermotility reduced by” value ([2]; highest dose given (300 mg/kg) i.p. 5 h before phencyclidine) was 75% and the “brain GABA concentrations” value [3] was “below 3 µmol/g”.

In the case of `C=C[C@H](N)CCC(=O)O` [Vigabatrin, (R)S-4-aminohex-5-enoic acid], the “Spontaneous locomotor activity, Mean scores ± S.D.” value ([1]; 200 mg/kg i.p., 5 h pretreatment) is reported as 505 ± 344 (6), the “Spontaneous locomotor activity, Mean scores ± S.D.” value ([1]; 400 mg/kg i.p., 5 h pretreatment) is reported as 471 ± 306 (12) and the “Spontaneous locomotor activity, Mean scores ± S.D.” value ([1]; 400 mg/kg i.p., given 10 minutes before physiol. saline, 35 minutes observation) is reported as 528 ± 239 ( 6). The “Spontaneous locomotor activity, Mean scores ± S.D.” value ([1]; 600 mg/kg i.p., 5 h pretreatment) was 361 ± 139 (6), the “Spontaneous locomotor activity, Mean scores ± S.D.” value ([1]; 700 mg/kg i.p., 5 h pretreatment) was 441 ± 298 (6) and the “Spontaneous locomotor activity, Mean scores ± S.D.” value ([1]; 800 mg/kg i.p., 5 h pretreatment) was 435 ± 275 (6). The “effect on spontaneous locomotor activity (in words)” value ([1]; 100-800 mg/kg i.p., 5 h pretreatment (Table II)) was “not significantly affected”, the “PCP-induced locomotor activity” value ([2]; 100 mg/kg i.p. 5 h before phencyclidine (5 mg/kg)) was 2360 ± 1100 (12) and the “PCP-induced locomotor activity” value ([2]; 200 mg/kg i.p. 5 h before phencyclidine (5 mg/kg)) was 1970 ± 730 (12). For the same compound, the “locomotor activity, lowest value, as % of that of phencyclidine-treated controls” value ([2]; 400 mg/kg i.p. 5 h before phencyclidine) was 55%, the “PCP-induced locomotor activity” value ([2]; 400 mg/kg i.p. 5 h before phencyclidine (5 mg/kg)) was 1690 ± 1385 (12) and the “PCP-induced locomotor activity” value ([2]; 400 mg/kg i.p., given 10 minutes before phencyclidine (5 mg/kg)) was 2460 ± 1220 (11). The “PCP-induced locomotor activity” value ([2]; 600 mg/kg i.p. 5 h before phencyclidine (5 mg/kg)) was 2180 ± 410 (12), the “PCP-induced locomotor activity” value ([2]; 700 mg/kg i.p. 5 h before phencyclidine (5 mg/kg)) was 1780 ± 1080 (12) and the “PCP-induced locomotor activity” value ([2]; 800 mg/kg i.p. 5 h before phencyclidine (5 mg/kg)) was 2100 ± 1780 (12). The “direct effect on phencyclidine-induced locomotor behavior (in words)” value [2] was “absence of an effect” and the “brain GABA concentrations” value [3] was “below 3 µmol/g”.
